{
  "source": "patent US6355785B1",
  "about": "“Guanosine-rich oligonucleotide integrase inhibitors” (Aronex Pharmaceuticals, Inc., priority 1993, dated 2002)",
  "key": {"[1]": {"test_system": "Semliki forest virus"}, "[2]": {"conditions": "cynomolgus monkey, in vivo"}, "[3]": {"test_system": "Influenza A (H3N2)"}, "[4]": {"test_system": "HSV-1"}, "[5]": {"biological_target": "recombinant HIV-1 integrase (wild-type) (Human immunodeficiency virus type 1 group M subtype B, UniProt P12497)", "conditions": "previously reported by Ojwang et al., cited from earlier work"}, "[6]": {"test": "Repeat-dose monkey study: coagulation parameters (aPTT)", "type": "in vivo, cynomolgus monkeys", "procedure": "Hematology and coagulation parameters. Hematology and coagulation parameters were determined 9-11 days prior to the start of the study, just prior to administering doses 1 (day 1) and 12 (day 23), five minutes after dosing (coagulation only), 30 minutes and 4 hours following dosing, one day after the 12th dose (day 24), and in recovery monkeys at sacrifice (day 37). The following were determined: red blood cell count and morphology, total and differential while blood cells, hemoglobin, hematocrit, prothrombin time, fibrinogen, mean cell hemoglobin, mean corpuscular volume, mean corpuscular hemoglobin concentration, platelet count, activate partial thromboplastin time, and D-dime. Hematology was determined at Sierra Nevada Laboratories (Reno, Nev.)."}, "[7]": {"test_system": "PBMC", "type": "cell-based, human", "procedure": "(§1) In other experiments of the effect of T30177 on the viability of primary human PBMCs, PBLs and macrophages was determined using the trypan blue dye exclusion technique. Griffiths, B., IRL Press, p. 48 (1992), or by measuring the degree of [^3H]thymidine or [^3]leucine uptake in these cells (McGrath, M. S., et al. Proc. Natl. Acad. Sci. USA 86:2844-2848 (1989)).\n(§2) Cytotoxicity Assays. The cytotoxicity of T30177 was determined using several different cell lines and primary human cells as described above. The cytotoxicity profile obtained for log phase growing cells was variable depending upon the cell line used, while the slower growing PBMCs, PBLs, and macrophages all tolerated the compound at concentrations exceeding 100 μM as monitored using the trypan blue exclusion, [^3H]thymidine uptake, or [^3H]leucine uptake techniques."}, "[8]": {"test_system": "PBLs", "type": "cell-based, human", "procedure": "as §1, §2"}, "[9]": {"test_system": "Macrophages", "type": "cell-based, human", "procedure": "as §1, §2"}, "[10]": {"test_system": "Coxsackie virus (B4)"}, "[11]": {"biological_target": "T1, SIV integrase (Simian immunodeficiency virus, UniProt P05896)", "T1 construct": "Purified recombinant wild-type FIV and SIV integrases were generous gifts; purchased gift of Dr. R. Craigie (NIDDK) (not bought)", "T1 sequence (P05896 1156-1448)": "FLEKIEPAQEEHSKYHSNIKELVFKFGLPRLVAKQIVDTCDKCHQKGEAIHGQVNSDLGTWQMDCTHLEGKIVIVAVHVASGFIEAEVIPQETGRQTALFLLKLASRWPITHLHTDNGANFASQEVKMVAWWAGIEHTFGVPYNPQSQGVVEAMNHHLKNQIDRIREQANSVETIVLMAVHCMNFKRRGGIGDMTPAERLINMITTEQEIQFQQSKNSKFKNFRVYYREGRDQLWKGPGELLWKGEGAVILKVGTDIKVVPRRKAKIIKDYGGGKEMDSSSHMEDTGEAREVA", "test": "SIV integrase 3′-processing assay", "type": "biochemical"}, "[12]": {"design": "species or system cynomolgus monkeys", "conditions": "cynomolgus monkey, in vivo", "procedure": "Dosing. Twelve experimentally naive cynomolgus monkeys were assigned to four groups of three animals each. Prior to dosing, each animal was lightly sedated with a combination of ketamine (1 0 mg/kg) and diazepam (0.5 mg/kg), and a catheter was introduced into the femoral artery for recording central arterial pressure. Monkeys were given a single intravenous infusion of 5, 20, or 50 mg AR177/kg or saline over ten minutes through a cephalic vein catheter using a Harvard infusion pump. Arterial blood samples were drawn at −10, +10, +20, +40, +60 and +120 minutes relative to the initiation of infusion into EDTA-containing tubes for hematology, complement factors, coagulation assay, serum chemistry, and plasma AR177 determination. At 24 hours post-infusion, blood was drawn via the femoral vein into EDTA-containing tubes for these same parameters. The concentration of AR177 in dosing solutions was confirmed post experiment by absorbance at 280 nm on a spectrophotometer. For the determination of AR177 by HPLC, the plasma fraction was obtained by low speed centrifugation of blood, and stored at −20° C. until used. Electrocardiograms (ECGs), central pressure, and heart rate were recorded continuously for 120 minutes following the initiation of doing. Table E-1 summarizes the study design. […]\nComplement factors. The complement split product Bb and total hemolytic complement CH50 were determined. […]"}, "[13]": {"biological_target": "T2, HIV-1 protease (Human immunodeficiency virus type 1 group M subtype B, UniProt P04585)", "T2 construct": "HIV-1 protease enzyme (Bachem) was diluted to 166 ug/mL; purchased Bachem", "test": "HIV-1 protease assay", "type": "biochemical", "conditions": "up to 10 μM", "procedure": "Protease assays. HIV-1 protease enzyme (Bachem) was diluted to 166 ug/mL in 50 mM NaOAc, 5 mM DTT, 2 mM ETDA, and 10% glycerol (pH 5.0) and stored as 10 ul aliquots at −20° C. HIV protease substrate I (Molecular Probes) was diluted to a working concentration of 0.32 nmol/μL. Enzyme (20 μL), substrate (20 μL) and drug (20 μL ) were added to each well of a microtiter plate. Positive and negative controls were evaluated in parallel. Fluorescence was quantitated on a Labsystems Fluoroskan II using 355 nm for excitation and 460 nm emission wavelengths at 37° C. at time zero and at 30 minute intervals for 2 hours."}, "[14]": {"test_system": "Yellow Fever virus"}},
  "note": "“Also recorded” adds a separate entry of the source. Read-outs that look alike come from different tables or passages of the source.",
  "data": [
    {"substance": "5′-gtggtgggtgggtgggt-3′ [T30177] (GTGGTGGGTGGGTGGGT; phosphorothioate termini, further chemistry not given here) [pPT version of parent compound I100-15, 17 mer]", "values": [
      {"measurement": "IC50 virus-induced cytopathogenicity", "setting": "[1]; Semliki forest virus", "value": ">200", "unit": "µg/mL"},
      {"measurement": "MCC minimum concentration altering normal cell morphology", "setting": "[1]; Semliki forest virus assay", "value": "≧200 μg/mL"},
      {"measurement": "histopathology of organs and tissues", "setting": "[2]", "value": "No clearly treatment-related histopathologic changes"},
      {"measurement": "organ weight", "setting": "[2]", "value": "no effects on organ weight"},
      {"measurement": "IC50 virus-induced cytopathogenicity", "setting": "[3]; Influenza A (H3N2)", "value": ">125", "unit": "µg/mL"},
      {"measurement": "MCC minimum concentration altering normal cell morphology", "setting": "[3]; Influenza A (H3N2) assay", "value": ">200", "unit": "μg/mL"},
      {"measurement": "IC50 virus-induced cytopathogenicity", "setting": "[4]; HSV-1 (KOS)", "value": ">200", "unit": "µg/mL"},
      {"measurement": "MCC minimum concentration altering normal cell morphology", "setting": "[4]; HSV-1 (KOS) assay", "value": 400, "unit": "μg/mL"},
      {"measurement": "IC50 virus-induced cytopathogenicity", "setting": "[4]; HSV-1 TK (B2006)", "value": ">200", "unit": "µg/mL"},
      {"measurement": "MCC minimum concentration altering normal cell morphology", "setting": "[4]; HSV-1 TK (B2006) assay", "value": 400, "unit": "μg/mL"},
      {"measurement": "IC50 virus-induced cytopathogenicity", "setting": "[4]; HSV-1 TK (VMW1837)", "value": ">200", "unit": "µg/mL"},
      {"measurement": "MCC minimum concentration altering normal cell morphology", "setting": "[4]; HSV-1 TK (VMW1837) assay", "value": 400, "unit": "μg/mL"},
      {"measurement": "IC50", "setting": "[5]; read-out: IC50 3′-PROC", "value": 0.079, "unit": "µM"},
      {"measurement": "IC50", "setting": "[5]; read-out: IC50 STR · TRA", "value": 0.049, "unit": "µM"},
      {"measurement": "anticoagulation activity (aPTT)", "setting": "[6]; 2.5 mg/kg", "value": "no anticoagulation activity"},
      {"measurement": "mean aPTT relative to pre-dose", "setting": "[6]; 10 mg/kg, 5 minutes post-dosing, doses 1 and 12", "value": "approximately twice the pre-dose value"},
      {"measurement": "mean aPTT", "setting": "[6]; 40 mg/kg, five minutes after dosing", "value": "exceeded the upper limit of the assay"},
      {"measurement": "no effect plasma AR177 concentration versus aPTT", "setting": "[6]; cynomolgus monkey, in vivo", "value": "60-100 μg AR177/mL"},
      {"measurement": "plasma AR177 concentration at doubling of aPTT", "setting": "[6]; cynomolgus monkey, in vivo", "value": "100-200 μg AR177/mL"},
      {"measurement": "plasma AR177 concentration at tripling of aPTT", "setting": "[6]; cynomolgus monkey, in vivo", "value": "220-300 μg AR177/mL"}
    ]},
    {"substance": "5′-gtggtgggtgggtgggt-3′ (GTGGTGGGTGGGTGGGT; phosphorothioate termini, further chemistry not given here) [T30177]", "values": [
      {"measurement": "CC50", "setting": "[7]", "value": "> 100", "unit": "µM"},
      {"measurement": "TC25", "setting": "[7]", "value": ">100", "unit": "µM"},
      {"measurement": "TC95", "setting": "[7]", "value": ">100", "unit": "µM"},
      {"measurement": "CC50", "setting": "[8]", "value": "> 100", "unit": "µM"},
      {"measurement": "TC25", "setting": "[8]", "value": ">100", "unit": "µM"},
      {"measurement": "TC95", "setting": "[8]", "value": ">100", "unit": "µM"},
      {"measurement": "CC50", "setting": "[9]", "value": "> 100", "unit": "µM"},
      {"measurement": "TC25", "setting": "[9]", "value": ">100", "unit": "µM"},
      {"measurement": "TC95", "setting": "[9]", "value": ">100", "unit": "µM"},
      {"measurement": "IC50 virus-induced cytopathogenicity", "setting": "[10]; Coxsackie virus (B4)", "value": ">200", "unit": "µg/mL"},
      {"measurement": "MCC minimum concentration altering normal cell morphology", "setting": "[10]; Coxsackie virus (B4) assay", "value": "≧400 μg/mL"},
      {"measurement": "IC50", "setting": "[11]", "value": 0.42, "unit": "µM"},
      {"measurement": "CH50 levels", "setting": "[12]", "value": "small and transient decreases"},
      {"measurement": "change in CHX (CH50) levels", "setting": "[12]", "value": "−25", "unit": "%"},
      {"measurement": "inhibition of HIV-1 protease", "setting": "[13]", "value": "No observable inhibition; also recorded: no effect on the viral enzyme was observed"},
      {"measurement": "IC50 virus-induced cytopathogenicity", "setting": "[14]; Yellow Fever virus", "value": ">200", "unit": "µg/mL"},
      {"measurement": "MCC minimum concentration altering normal cell morphology", "setting": "[14]; Yellow Fever virus assay", "value": ">200", "unit": "μg/mL"}
    ]}
  ]
}
